Target: human ACC2 (Homo sapiens (Human), UniProt O00763)
Test: ACC2 assay (spectrophotometric 384 well assay, NADH-linked kinetic method)
Assay type: biochemical
Conditions: hACC2 construct lacking 128 N-terminal amino acids; coupled lactate dehydrogenase/pyruvate kinase reaction, 340 nm, 25° C.
How it was run: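 Baculovirus/insect-cell human ACC2, anion-exchange purified; ADP formation coupled to pyruvate kinase/lactate dehydrogenase, NADH loss followed at 340 nm, 25° C, 15 min. Final 200 μM NADH and acetyl-CoA, 500 uM ATP; vehicle and no-acetyl-CoA wells set 100% and 0%.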

Chain of human ACC2 (O00763 129-2458): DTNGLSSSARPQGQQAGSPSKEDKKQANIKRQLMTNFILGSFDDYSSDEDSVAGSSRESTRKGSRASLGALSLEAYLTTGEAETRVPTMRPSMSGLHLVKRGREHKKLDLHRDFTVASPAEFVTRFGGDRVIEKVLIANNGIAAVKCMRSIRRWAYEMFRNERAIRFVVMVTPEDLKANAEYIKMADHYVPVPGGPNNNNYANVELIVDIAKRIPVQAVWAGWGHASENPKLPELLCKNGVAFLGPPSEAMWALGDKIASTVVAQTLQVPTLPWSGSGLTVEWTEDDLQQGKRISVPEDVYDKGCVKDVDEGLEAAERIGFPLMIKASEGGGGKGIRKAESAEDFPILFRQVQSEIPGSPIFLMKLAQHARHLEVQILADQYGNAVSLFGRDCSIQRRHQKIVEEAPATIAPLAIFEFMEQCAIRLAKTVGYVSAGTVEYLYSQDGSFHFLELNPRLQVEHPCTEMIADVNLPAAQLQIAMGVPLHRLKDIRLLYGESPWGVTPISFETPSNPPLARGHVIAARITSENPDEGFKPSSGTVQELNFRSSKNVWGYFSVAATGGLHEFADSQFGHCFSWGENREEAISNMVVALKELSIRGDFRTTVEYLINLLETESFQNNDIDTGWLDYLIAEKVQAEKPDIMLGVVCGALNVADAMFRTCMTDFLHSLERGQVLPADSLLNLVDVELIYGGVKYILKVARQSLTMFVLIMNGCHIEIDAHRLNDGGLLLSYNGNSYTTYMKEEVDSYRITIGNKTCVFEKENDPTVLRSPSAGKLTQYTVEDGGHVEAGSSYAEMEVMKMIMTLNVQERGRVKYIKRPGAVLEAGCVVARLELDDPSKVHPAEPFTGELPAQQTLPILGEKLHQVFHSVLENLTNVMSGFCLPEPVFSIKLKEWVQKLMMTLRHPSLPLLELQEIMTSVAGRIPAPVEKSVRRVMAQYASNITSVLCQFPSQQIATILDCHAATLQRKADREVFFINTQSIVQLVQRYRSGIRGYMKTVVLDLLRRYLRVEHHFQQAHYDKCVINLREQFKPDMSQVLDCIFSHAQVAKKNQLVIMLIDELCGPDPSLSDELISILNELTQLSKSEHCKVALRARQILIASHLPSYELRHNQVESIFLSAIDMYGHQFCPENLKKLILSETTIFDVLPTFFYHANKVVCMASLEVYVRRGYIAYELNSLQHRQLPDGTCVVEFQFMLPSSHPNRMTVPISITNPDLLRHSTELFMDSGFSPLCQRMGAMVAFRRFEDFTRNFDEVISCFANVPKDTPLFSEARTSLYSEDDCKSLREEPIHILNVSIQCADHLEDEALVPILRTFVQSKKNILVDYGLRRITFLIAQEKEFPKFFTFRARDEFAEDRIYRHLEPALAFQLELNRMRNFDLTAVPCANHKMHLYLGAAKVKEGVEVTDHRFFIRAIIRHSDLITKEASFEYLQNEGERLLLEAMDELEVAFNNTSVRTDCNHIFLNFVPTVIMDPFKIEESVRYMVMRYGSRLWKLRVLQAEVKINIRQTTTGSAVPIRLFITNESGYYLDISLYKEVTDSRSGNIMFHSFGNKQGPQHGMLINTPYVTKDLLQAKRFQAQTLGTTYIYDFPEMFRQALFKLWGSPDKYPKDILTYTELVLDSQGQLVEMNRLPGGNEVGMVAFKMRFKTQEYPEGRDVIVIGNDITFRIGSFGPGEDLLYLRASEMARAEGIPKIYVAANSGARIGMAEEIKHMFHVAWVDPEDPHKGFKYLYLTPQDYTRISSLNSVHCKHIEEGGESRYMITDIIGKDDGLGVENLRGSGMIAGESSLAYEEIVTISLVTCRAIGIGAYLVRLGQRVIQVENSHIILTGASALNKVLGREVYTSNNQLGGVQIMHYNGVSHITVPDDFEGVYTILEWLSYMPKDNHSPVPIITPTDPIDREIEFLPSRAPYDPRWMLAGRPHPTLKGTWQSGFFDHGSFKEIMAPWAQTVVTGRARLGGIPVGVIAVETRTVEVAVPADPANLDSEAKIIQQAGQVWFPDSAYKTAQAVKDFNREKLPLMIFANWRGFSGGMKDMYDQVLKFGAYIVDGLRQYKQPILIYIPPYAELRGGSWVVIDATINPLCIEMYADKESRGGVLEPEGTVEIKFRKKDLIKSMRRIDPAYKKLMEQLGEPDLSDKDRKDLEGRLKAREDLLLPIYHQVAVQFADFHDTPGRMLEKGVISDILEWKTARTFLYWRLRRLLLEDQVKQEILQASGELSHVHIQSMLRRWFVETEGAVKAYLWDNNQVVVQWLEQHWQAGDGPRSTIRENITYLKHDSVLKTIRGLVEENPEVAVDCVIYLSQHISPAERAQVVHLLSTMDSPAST

SMILES	IC50
CC(=O)N[C@@H](C)c1ccc(O[C@@H]2CCN(c3nc(N4CCC(F)(F)C4)ncc3Cl)C2)cc1 [Example 8.128]	278 nM
CC(=O)N[C@@H](C)c1ccc(O[C@@H]2CCN(c3ncnc(N4CCCC4)c3F)C2)cc1 [Example 8.129]	67 nM
COCCN(C)c1ncc(Cl)c(N2CC[C@@H](Oc3ccc([C@H](C)NC(C)=O)cc3)C2)n1 [Example 8.130]	79 nM
CC(=O)N[C@@H](C)c1ccc(O[C@@H]2CCN(c3nc(N(C)CCC#N)ncc3Cl)C2)cc1 [Example 8.131]	461 nM
CC(=O)N[C@@H](C)c1ccc(O[C@@H]2CCN(c3ncnc(N(C)CC(F)F)c3F)C2)cc1 [Example 8.132]	206 nM
CC(=O)N[C@@H](C)c1ccc(O[C@@H]2CCN(c3ncnc(N(C)C4CC4)c3F)C2)cc1 [Example 8.133]	299 nM
COCCN(C)c1ncnc(N2CC[C@@H](Oc3ccc([C@H](C)NC(C)=O)cc3)C2)c1F [Example 8.134]	208 nM
CC(=O)N[C@@H](C)c1ccc(O[C@@H]2CCN(c3ncnc(N(C)C(C)C)c3F)C2)cc1 [Example 8.135]	131 nM
CC(=O)N[C@@H](C)c1ccc(O[C@@H]2CCN(c3nc(N(C)CC(F)F)ncc3Cl)C2)cc1 [Example 8.136]	70 nM
CC(=O)N[C@@H](C)c1ccc(O[C@@H]2CCN(c3ncnc(N(C)CCC#N)c3F)C2)cc1 [Example 8.137]	672 nM
CC(=O)N[C@@H](C)c1ccc(O[C@@H]2CCN(c3ncnc(N4CCCCC4)c3F)C2)cc1 [Example 8.138]	105 nM
CC(=O)N[C@@H](C)c1ccc(O[C@@H]2CCN(c3ncnc(N4CCC(C)C4)c3F)C2)cc1 (some centres unmarked) [Example 8.139]	49 nM
CC(=O)N[C@@H](C)c1ccc(O[C@@H]2CCN(c3ncnc(N4CCC(F)(F)C4)c3F)C2)cc1 [Example 8.140]	109 nM
CC(=O)N[C@@H](C)c1ccc(O[C@@H]2CCN(c3nc(N(C)C(C)C)ncc3Cl)C2)cc1 [Example 8.141]	148 nM
CC(=O)N[C@@H](C)c1ccc(O[C@@H]2CCN(c3nc(N4CCC(C)C4)ncc3Cl)C2)cc1 (some centres unmarked) [Example 8.142]	138 nM
CC(=O)N[C@@H](C)c1ccc(O[C@@H]2CCN(c3ncnc(N4CCOCC4)c3F)C2)cc1 [Example 8.143]	429 nM
CCCN(C)c1ncnc(N2CC[C@@H](Oc3ccc([C@H](C)NC(C)=O)cc3)C2)c1F [Example 8.144]	104 nM
CC(=O)N[C@@H](C)c1ccc(O[C@@H]2CCN(c3nc(N(C)C4CC4)ncc3Cl)C2)cc1 [Example 8.145]	93 nM
CC(=O)N[C@@H](C)c1ccc(O[C@@H]2CCN(c3nc(N4C[C@@H]5C[C@H]4CO5)ncc3Cl)C2)cc1 [Example 8.146]	984 nM
CC(=O)N[C@@H](C)c1ccc(O[C@@H]2CCN(c3ncnc(N4C[C@@H]5C[C@H]4CO5)c3F)C2)cc1 [Example 8.147]	2320 nM
CC(=O)N[C@@H](C)c1ccc(O[C@@H]2CCN(c3ncnc(N(C)C[C@H]4CCCO4)c3F)C2)cc1 [Example 8.148]	198 nM
CCN(CCC#N)c1ncc(Cl)c(N2CC[C@@H](Oc3ccc([C@H](C)NC(C)=O)cc3)C2)n1 [Example 8.149]	387 nM
COC[C@@H](C)N(C)c1ncc(F)c(N2CC[C@@H](Oc3ccc([C@H](C)NC(C)=O)cc3)C2)n1 [Example 8.150]	159 nM

SMILES	IC50
CC(=O)N[C@@H](C)c1ccc(O[C@@H]2CCN(c3nc(N4CCCC4(C)C)ncc3Cl)C2)cc1 [Example 8.152]	215 nM
COC1CCN(c2ncc(Cl)c(N3CC[C@@H](Oc4ccc([C@H](C)NC(C)=O)cc4)C3)n2)CC1 [Example 8.153]	679 nM
CC(=O)N[C@@H](C)c1ccc(O[C@@H]2CCN(c3nc(N4CCCC4C)ncc3Cl)C2)cc1 (some centres unmarked) [Example 8.154]	103 nM
CC(=O)N[C@@H](C)c1ccc(O[C@@H]2CCN(c3nc(N4C[C@@H]5C[C@H]4CO5)ncc3F)C2)cc1 [Example 8.155]	613 nM
CC(=O)N[C@@H](C)c1ccc(O[C@@H]2CCN(c3nc(N4CCC(C)(O)C4)ncc3F)C2)cc1 (some centres unmarked) [Example 8.156]	153 nM
CC(=O)N[C@@H](C)c1ccc(O[C@@H]2CCN(c3nc(N(C)C4CCOCC4)ncc3F)C2)cc1 [Example 8.157]	105 nM
CC(=O)N[C@@H](C)c1ccc(O[C@@H]2CCN(c3nc(N(C)CCC(F)(F)F)ncc3F)C2)cc1 [Example 8.158]	56 nM
CC(=O)N[C@@H](C)c1ccc(O[C@@H]2CCN(c3ncnc(N(C)CCC(F)(F)F)c3F)C2)cc1 [Example 8.159]	151 nM
CC(=O)N[C@@H](C)c1ccc(O[C@@H]2CCN(c3ncnc(N4CCCC(F)(F)C4)c3F)C2)cc1 [Example 8.161]	384 nM
CC(=O)N[C@@H](C)c1ccc(O[C@@H]2CCN(c3ncnc(N4CC[C@@H](F)C4)c3F)C2)cc1 [Example 8.162]	476 nM
CC(=O)N[C@@H](C)c1ccc(O[C@@H]2CCN(c3cc(N4CCOCC4C)ncn3)C2)cc1 (some centres unmarked) [Example 8.163]	469 nM
CC(=O)N[C@@H](C)c1ccc(O[C@@H]2CCN(c3nc(N(C)CC(C)C)ncc3F)C2)cc1 [Example 8.164]	102 nM
CC(=O)N[C@@H](C)c1ccc(O[C@@H]2CCN(c3nc(N(C)C[C@@H]4CCCO4)ncc3F)C2)cc1 [Example 8.165]	75 nM
CC(=O)N[C@@H](C)c1ccc(O[C@@H]2CCN(c3nc(N(C)C4CCCOC4)ncc3F)C2)cc1 (some centres unmarked) [Example 8.166]	105 nM
COCCCN(C)c1ncc(F)c(N2CC[C@@H](Oc3ccc([C@H](C)NC(C)=O)cc3)C2)n1 [Example 8.167]	101 nM
COCCCN(C)c1ncc(Cl)c(N2CC[C@@H](Oc3ccc([C@H](C)NC(C)=O)cc3)C2)n1 [Example 8.168]	173 nM
CC(=O)N[C@@H](C)c1ccc(O[C@@H]2CCN(c3ccnc(N(C)CC(C)C)n3)C2)cc1 [Example 8.171]	175 nM
CC(=O)N[C@@H](C)c1ccc(O[C@@H]2CCN(c3ncnc(N4CC5COCC5C4)c3F)C2)cc1 (some centres unmarked) [Example 8.172]	675 nM
CC(=O)N[C@@H](C)c1ccc(O[C@@H]2CCN(c3nc(N4[C@H](C)CCC[C@H]4C)ncc3Cl)C2)cc1 [Example 8.173]	155 nM
CC(=O)N[C@@H](C)c1ccc(O[C@@H]2CCN(c3nc(N4CCOC(C(F)(F)F)C4)ncc3Cl)C2)cc1 (some centres unmarked) [Example 8.174]	170 nM
CC(=O)N[C@@H](C)c1ccc(O[C@@H]2CCN(c3nc(N4CCc5nocc5C4)ncc3Cl)C2)cc1 [Example 8.175]	1380 nM
CC(=O)N[C@@H](C)c1ccc(O[C@@H]2CCN(c3ncnc(N4CCOC(C)(C)C4)c3F)C2)cc1 [Example 8.176]	683 nM
COC[C@H](C)N(C)c1ncnc(N2CC[C@@H](Oc3ccc([C@H](C)NC(C)=O)cc3)C2)c1F [Example 8.177]	476 nM

SMILES	IC50
CCN(CCO)c1ncc(Cl)c(N2CC[C@@H](Oc3ccc([C@H](C)NC(C)=O)cc3)C2)n1 [Example 8.178]	389 nM
CC(=O)N[C@@H](C)c1ccc(O[C@@H]2CCN(c3ncnc(N4CCOC(C)C4)c3F)C2)cc1 (some centres unmarked) [Example 8.179]	358 nM
CC(=O)N[C@@H](C)c1ccc(O[C@@H]2CCN(c3ccnc(N(C)C4CCCOC4)n3)C2)cc1 (some centres unmarked) [Example 8.180]	278 nM
CC(=O)N[C@@H](C)c1ccc(O[C@@H]2CCN(c3nc(N4CC[C@@H](F)C4)ncc3F)C2)cc1 [Example 8.181]	531 nM
COC[C@H]1CCCN1c1ncc(F)c(N2CC[C@@H](Oc3ccc([C@H](C)NC(C)=O)cc3)C2)n1 [Example 8.182]	1120 nM
CC(=O)N[C@@H](C)c1ccc(O[C@@H]2CCN(c3nc(N4CCC(CO)C4)ncc3F)C2)cc1 (some centres unmarked) [Example 8.183]	807 nM
CC(=O)N[C@@H](C)c1ccc(O[C@@H]2CCN(c3nc(N4CC[C@H](F)C4)ncc3F)C2)cc1 [Example 8.184]	220 nM
CC(=O)N[C@@H](C)c1ccc(O[C@@H]2CCN(c3nc(N(C)CC(C)O)ncc3Cl)C2)cc1 (some centres unmarked) [Example 8.185]	753 nM
CC(=O)N[C@@H](C)c1ccc(O[C@@H]2CCN(c3nc(N4CCOC(C)C4)ncc3Cl)C2)cc1 (some centres unmarked) [Example 8.186]	204 nM
CC(=O)N[C@@H](C)c1ccc(O[C@@H]2CCN(c3nc(N4CCC(F)(F)CC4)ncc3Cl)C2)cc1 [Example 8.187]	220 nM
COC[C@@H]1CCN(c2ncc(Cl)c(N3CC[C@@H](Oc4ccc([C@H](C)NC(C)=O)cc4)C3)n2)C1 [Example 8.188]	118 nM
CC(=O)N[C@@H](C)c1ccc(O[C@@H]2CCN(c3nc(N4CCCC(F)(F)C4)ncc3Cl)C2)cc1 [Example 8.189]	319 nM
CC(=O)N[C@@H](C)c1ccc(O[C@@H]2CCN(c3nc(N(C)C4CCC4)ncc3F)C2)cc1 [Example 8.190]	41 nM
CC(=O)N[C@@H](C)c1ccc(O[C@@H]2CCN(c3nc(N4CCC(C)(C)C4)ncc3Cl)C2)cc1 [Example 8.191]	222 nM
CC(=O)N[C@@H](C)c1ccc(O[C@@H]2CCN(c3nc(N(C)CCOC(C)(C)C)ncc3Cl)C2)cc1 [Example 8.192]	640 nM
COC1CCN(c2ncc(F)c(N3CC[C@@H](Oc4ccc([C@H](C)NC(C)=O)cc4)C3)n2)CC1 [Example 8.193]	229 nM
CC(=O)N[C@@H](C)c1ccc(O[C@@H]2CCN(c3nc(N4CCC(C)(C)C4)ncc3F)C2)cc1 [Example 8.194]	128 nM
CC(=O)N[C@@H](C)c1ccc(O[C@@H]2CCN(c3ccnc(N(C)C4CCOCC4)n3)C2)cc1 [Example 8.195]	393 nM
CC(=O)N[C@@H](C)c1ccc(O[C@@H]2CCN(c3ccnc(N4CC=CC4)n3)C2)cc1 [Example 8.196]	277 nM
COC[C@H]1CCCN1c1ncnc(N2CC[C@@H](Oc3ccc([C@H](C)NC(C)=O)cc3)C2)c1F [Example 8.197]	733 nM
CC(=O)N[C@@H](C)c1ccc(O[C@@H]2CCN(c3ncnc(N4CCOC(C(F)(F)F)C4)c3F)C2)cc1 (some centres unmarked) [Example 8.198]	549 nM
CC(=O)N[C@@H](C)c1ccc(O[C@@H]2CCN(c3ncnc(N4CCC(C)(C)C4)c3F)C2)cc1 [Example 8.199]	85 nM

Source: patent publication US8962641B2, “Pyrimidine-substituted pyrrolidine derivatives, pharmaceutical compositions and uses thereof” (Boehringer Ingelheim International GmbH, priority 2013, dated 2015)
